Assay results from ChEMBL document CHEMBL3259816, “Interactions of cyclic and non-cyclic naphthalene diimide derivatives with different nucleic acids” (Bioorg Med Chem, 2014).
Calls of active or inactive are those of the source. The rule behind the calls is not given here.

How the values were obtained:
[1] = Binding affinity to double strand 5'-GGGAGGTTTCGC-3' and 5'-GCGAAACCTCCC-3' DNA (unknown origin) assessed as change in melting temperature by spectrophotometry in presence of Na+
[2] = Binding affinity to 5'-AGGG(TTAGGG)3-3' DNA (unknown origin) by Benesi-Hildebrand method in presence of Na+
[3] = Binding affinity to 5'-AGGG(TTAGGG)3-3' DNA (unknown origin) assessed as change in melting temperature by spectropolarimetry in presence of Na+
Escherichia coli [4] = test: Binding affinity to Escherichia coli pUC19 DNA assessed as formation of supercoiled DNA at 1 to 5 uM after 1 hr by agarose gel electrophoresis
[5] = Binding affinity to 5'-AGGG(TTAGGG)3-3' DNA (unknown origin) assessed as assessed as G-quadruplex formation at 2:1 DNA/ligand molar ratio by circular dichroism analysis in presence of KCl
[6] = Binding affinity to double strand 5'-GGGAGGTTTCGC-3' and 5'-GCGAAACCTCCC-3' DNA (unknown origin) by Benesi-Hildebrand method in presence of K+
Nucleic Acid [7] = test: Binding affinity to double strand 5'-GGGAGGTTTCGC-3' and 5'-GCGAAACCTCCC-3' DNA (unknown origin) assessed as DNA intercalation at 0.5 to 6.75 uM by circular dichroism analysis in presence of K+; assay type: nucleic-acid assay
[8] = Binding affinity to 5'-AGGG(TTAGGG)3-3' DNA (unknown origin) by Benesi-Hildebrand method in presence of K+
[9] = Binding affinity to poly (dA-dT)2 dsDNA (unknown origin) assessed as change in melting temperature at 1:0.05 DNA/ligand ratio by absorbance melting method in presence of Na+
[10] = Binding affinity to poly (dA-dT)2 dsDNA (unknown origin) assessed as change in melting temperature at 1:0.1 DNA/ligand ratio by absorbance melting method in presence of Na+
[11] = Binding affinity to double strand 5'-GGGAGGTTTCGC-3' and 5'-GCGAAACCTCCC-3' DNA (unknown origin) assessed as change in melting temperature by spectrophotometry in presence of K+
Nucleic Acid [12] = test: Binding affinity to poly (dG-dC)2 dsDNA (unknown origin) assessed as DNA intercalation at 5 to 50 uM by circular dichroism analysis in presence of NaCl; assay type: nucleic-acid assay
Nucleic Acid [13] = test: Binding affinity to double strand 5'-GGGAGGTTTCGC-3' and 5'-GCGAAACCTCCC-3' DNA (unknown origin) assessed as DNA intercalation at 0.75 to 11.25 uM by circular dichroism analysis in presence of Na+; assay type: nucleic-acid assay
[14] = Inhibition of telomerase (unknown origin) incubated for 60 mins at 30 degC followed by 5 mins at 95 degC by TRAP assay; set-up: species or system Homo sapiens
[15] = Binding affinity to poly (dA-dT)2 dsDNA (unknown origin) assessed as change in melting temperature at 1:0.15 DNA/ligand ratio by absorbance melting method in presence of Na+
Nucleic Acid [16] = test: Binding affinity to double strand 5'-GGGAGGTTTCGC-3' and 5'-GCGAAACCTCCC-3' DNA (unknown origin) assessed as DNA intercalation at 0.75 to 11.25 uM by circular dichroism analysis in presence of K+; assay type: nucleic-acid assay
Nucleic Acid [17] = test: Binding affinity to poly (dA-dT)2 dsDNA (unknown origin) assessed as DNA intercalation at 5 to 50 uM by circular dichroism analysis in presence of NaCl; assay type: nucleic-acid assay
[18] = Binding affinity to double strand 5'-GGGAGGTTTCGC-3' and 5'-GCGAAACCTCCC-3' DNA (unknown origin) by Benesi-Hildebrand method in presence of Na+
Nucleic Acid [19] = test: Binding affinity to double strand 5'-GGGAGGTTTCGC-3' and 5'-GCGAAACCTCCC-3' DNA (unknown origin) assessed as DNA intercalation at 0.5 to 6.75 uM by circular dichroism analysis in presence of Na+; assay type: nucleic-acid assay
Escherichia coli [20] = test: Binding affinity to Escherichia coli pUC19 DNA assessed as formation of supercoiled DNA at 0.4 to 2.4 uM after 1 hr by agarose gel electrophoresis
[21] = Binding affinity to poly (dA-dT)2 dsDNA (unknown origin) assessed as change in melting temperature at 1:0.3 DNA/ligand ratio by absorbance melting method in presence of Na+
[22] = Binding affinity to 5'-AGGG(TTAGGG)3-3' DNA (unknown origin) assessed as change in melting temperature by spectropolarimetry in presence of K+
[23] = Stabilization of 5'-AGGG(TTAGGG)3-3' DNA (unknown origin) assessed as G-quadruplex formation at 1:0.3 to 1:4.5 DNA/ligand molar ratio by circular dichroism analysis in presence of NaCl
Calf thymus DNA = test: Binding affinity to calf thymus DNA assessed as DNA intercalation at 5 to 50 uM by circular dichroism analysis in presence of NaCl; assay type: nucleic-acid assay; details: Bos taurus
[24] = Stabilization of 5'-AGGG(TTAGGG)3-3' DNA (unknown origin) assessed as G-quadruplex formation at 1:0.3 to 1:4.5 DNA/ligand molar ratio by circular dichroism analysis in presence of KCl

ΔTm [1] [°C]	Kb [2] [×10⁶ /M]	ΔTm [3] [°C]	Activity (Escherichia coli [4])	Activity [5]	Kb [6] [×10⁶ /M]	Activity (Nucleic Acid [7])	Kb [8] [×10⁶ /M]	ΔTm [9] [°C]	ΔTm [10] [°C]	ΔTm [11] [°C]	Activity (Nucleic Acid [12])	Activity (Nucleic Acid [13])	EC50 [14] [µM]	ΔTm [15] [°C]	Activity (Nucleic Acid [16])	Activity (Nucleic Acid [17])	Kb [18] [×10⁶ /M]	Activity (Nucleic Acid [19])	Activity (Escherichia coli [20])	SMILES	also measured
10	0.9	3	Active	Active	2.6	Active	3.7	9	14	10	Active	Active	0.35	18	Active	Active	2.5	Active	Active	O=C1NCCCN2CCN(CCCN3C(=O)c4ccc5c6c(ccc(c46)C3=O)C(=O)N(CCCN3CCN(CCCNC(=O)c4ccc1cc4)CC3)C5=O)CC2	ΔTm [21]: 24 °C; ΔTm [22]: 9 °C; Activity [23]: Active; Activity (Calf thymus DNA): Active; Activity [24]: Active
5	0.7	1	Active	Active	1	Active	1.4	2	4	5	Active	Active	6	7	Active	Active	1	Active	Active	CN(C)CCCN1C(=O)c2ccc3c4c(ccc(c24)C1=O)C(=O)N(CCCN(C)C)C3=O	ΔTm [21]: 13 °C; ΔTm [22]: 6 °C; Activity [23]: Active; Activity (Calf thymus DNA): Active; Activity [24]: Active
